This is an account of results in ChEMBL document CHEMBL1146106, “1-Phenyl-8-azabicyclo[3.2.1]octane ethers: a novel series of neurokinin (NK1) antagonists” (Bioorg Med Chem Lett, 2006).

The target in experiment [1] is Voltage-gated inwardly rectifying potassium channel KCNH2 (Homo sapiens, UniProt Q12809). Kind of experiment: Displacement of [35S]-labeled MK499 from cloned hERG expressed in HEK cells. Type of experiment: cell-based, HEK293.
The test system of experiment [2] is Gerbil, jird. Description: Inhibition of GR-73632-induced foot tapping in iv dosed gerbil. Type of experiment: functional. Particulars: Meriones, read-out: ID50 (the source's name).
The test system of experiment [3] is Gerbil, jird. Description: Inhibition of GR-73632-induced foot tapping in iv dosed gerbils after 24 hrs. The format is functional. Particulars: Meriones, read-out: ID50 (the source's name).
For another experiment, the target named is Substance-P receptor (Homo sapiens, UniProt P25103). Description: Displacement of [125I]-labeled substance P from human cloned NK1 receptor expressed in CHO cells. Type of experiment: cell-based.
Experiment [4] relates to Gerbil, jird. Kind of experiment: Inhibition of GR-73632 induced foot tapping in gerbils at 3 mg/kg, iv after 24 hrs. The format is functional. To be noted: Meriones.
In experiment [5] the test system is Gerbil, jird. Description: Inhibition of GR-73632-induced foot tapping in gerbils at 3 mg/kg, iv. The format is functional. To be noted: Meriones.

Chain of Voltage-gated inwardly rectifying potassium channel KCNH2 (Q12809 whole entry): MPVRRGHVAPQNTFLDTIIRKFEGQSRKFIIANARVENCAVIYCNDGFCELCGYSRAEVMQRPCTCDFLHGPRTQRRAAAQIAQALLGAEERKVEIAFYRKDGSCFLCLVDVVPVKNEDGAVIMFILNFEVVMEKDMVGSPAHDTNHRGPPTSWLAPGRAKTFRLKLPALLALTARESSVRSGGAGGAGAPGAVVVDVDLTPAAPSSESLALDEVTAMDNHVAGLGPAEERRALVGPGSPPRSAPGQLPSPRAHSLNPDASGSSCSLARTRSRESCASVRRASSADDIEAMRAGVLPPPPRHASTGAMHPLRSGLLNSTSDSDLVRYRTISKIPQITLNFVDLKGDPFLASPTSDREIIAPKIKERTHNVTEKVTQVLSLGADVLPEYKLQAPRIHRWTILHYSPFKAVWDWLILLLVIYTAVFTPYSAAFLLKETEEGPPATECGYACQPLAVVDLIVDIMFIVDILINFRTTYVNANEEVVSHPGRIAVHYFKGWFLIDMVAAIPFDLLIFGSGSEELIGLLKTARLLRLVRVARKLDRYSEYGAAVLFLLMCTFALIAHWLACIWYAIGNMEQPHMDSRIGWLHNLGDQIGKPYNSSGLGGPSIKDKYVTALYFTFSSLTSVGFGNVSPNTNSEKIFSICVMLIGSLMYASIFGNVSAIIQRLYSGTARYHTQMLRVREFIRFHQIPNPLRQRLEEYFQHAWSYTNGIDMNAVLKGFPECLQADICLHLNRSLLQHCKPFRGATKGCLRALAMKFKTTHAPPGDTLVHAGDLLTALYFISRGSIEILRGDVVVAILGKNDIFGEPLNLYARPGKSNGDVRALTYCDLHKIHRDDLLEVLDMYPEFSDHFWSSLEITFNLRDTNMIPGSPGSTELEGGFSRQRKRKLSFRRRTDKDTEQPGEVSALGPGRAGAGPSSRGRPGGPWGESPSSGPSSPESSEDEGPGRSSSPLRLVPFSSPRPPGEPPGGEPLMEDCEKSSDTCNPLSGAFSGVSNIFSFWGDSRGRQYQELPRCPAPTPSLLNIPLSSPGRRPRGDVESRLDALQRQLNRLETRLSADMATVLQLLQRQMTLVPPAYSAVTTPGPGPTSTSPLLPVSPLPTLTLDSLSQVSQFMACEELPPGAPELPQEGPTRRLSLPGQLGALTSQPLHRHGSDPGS
Chain of Substance-P receptor (P25103 whole entry): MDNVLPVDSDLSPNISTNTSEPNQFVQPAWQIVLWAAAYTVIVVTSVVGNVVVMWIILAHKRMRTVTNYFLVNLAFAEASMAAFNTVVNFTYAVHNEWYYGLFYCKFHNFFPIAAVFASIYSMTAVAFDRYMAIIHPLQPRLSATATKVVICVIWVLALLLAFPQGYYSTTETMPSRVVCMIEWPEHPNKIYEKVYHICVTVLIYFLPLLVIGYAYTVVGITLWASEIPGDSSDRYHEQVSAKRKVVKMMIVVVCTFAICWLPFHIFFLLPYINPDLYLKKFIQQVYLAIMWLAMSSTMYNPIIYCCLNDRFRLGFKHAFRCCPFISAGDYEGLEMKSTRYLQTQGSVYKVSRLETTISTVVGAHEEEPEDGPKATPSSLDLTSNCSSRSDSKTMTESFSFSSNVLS

Turning to `C[C@@H](OC1CCC2NC1(c1ccccc1)CC2c1nnnn1C)c1cc(C(F)(F)F)cc(C(F)(F)F)c1` (stereo partly specified), in experiment [1], affinity was put at a Ki of 2800 nM. For the same molecule, the ED50 in the experiment on Gerbil, jird [2] worked out at 0.2 mg/kg; in the experiment on Gerbil, jird [3] it was 0.8 mg/kg. Further, the half-maximal inhibitory concentration (IC50) on Substance-P receptor was 1.2 nM.

Take `C[C@@H](OC1CCC2CCC1(c1ccccc1)N2)c1cc(C(F)(F)F)cc(C(F)(F)F)c1` (stereo partly specified): the IC50 at Substance-P receptor worked out at 4.2 nM.

In turn, `C[C@@H](OC1CCC2NC1(c1ccccc1)CC2(F)c1nnn(C)n1)c1cc(C(F)(F)F)cc(C(F)(F)F)c1` (stereo partly specified) displayed an inhibition constant Ki in experiment [1] greater than 5000 nM. Besides, the inhibition in vivo at 3 mg/kg in the experiment with Gerbil, jird [4] stood at 23%. Besides, on Substance-P receptor, the half-maximal inhibitory concentration (IC50) amounted to 0.4 nM.

`Cn1nnc(C2(F)CC3(c4ccccc4)NC2CCC3OCc2cc(C(F)(F)F)cc(C(F)(F)F)c2)n1` (stereo unspecified) displayed a Ki in experiment [1] greater than 10000 nM. In the experiment with Gerbil, jird [4], this molecule displayed an inhibition in vivo at 3 mg/kg of 11%. This molecule also returned an IC50 on Substance-P receptor of 1.5 nM.

The molecule `O=S(=O)(c1ccccc1)C1CC2(c3ccccc3)NC1CCC2OCc1cc(C(F)(F)F)cc(C(F)(F)F)c1` (stereo unspecified) had a Ki in experiment [1] of 1300 nM. The molecule also came in with a half-inhibitory concentration (IC50) at Substance-P receptor of 2.8 nM.

`FC(F)(F)c1cc(COC2CCC3CCC2(c2ccccc2)N3)cc(C(F)(F)F)c1` (stereo unspecified) showed a Ki in experiment [1] of 300 nM. This molecule returned an IC50 on Substance-P receptor of 3 nM.

In experiment [1], `Cn1nnc(C2CC3(c4ccccc4)NC2CCC3OCc2cc(C(F)(F)F)cc(C(F)(F)F)c2)n1` (stereo unspecified) registered an inhibition constant Ki of 100 nM. Moreover, the ED50 stood at 0.3 mg/kg in the experiment on Gerbil, jird [2] and 0.6 mg/kg in the experiment with Gerbil, jird [3]. On Substance-P receptor, this molecule gave a 50% inhibitory concentration (IC50) of 1 nM.

In turn, `C[C@@H](OC1CCC2NC1(c1ccccc1)CC2S(=O)(=O)c1ccccc1)c1cc(C(F)(F)F)cc(C(F)(F)F)c1` (stereo partly specified) returned an inhibition in vivo at 3 mg/kg in the experiment with Gerbil, jird [5] of 39%. Also, on Substance-P receptor, the half-maximal inhibitory concentration (IC50) came to 0.6 nM.

In experiment [1], `C[C@@H](OC1CCC2NC1(c1ccccc1)CC2c1nnn(C)n1)c1cc(C(F)(F)F)cc(C(F)(F)F)c1` (stereo partly specified) showed a Ki of 1800 nM. Besides, the ED50 with Gerbil, jird [2] worked out at 0.4 mg/kg; in the experiment with Gerbil, jird [3] it was 1.1 mg/kg. The molecule also yielded an IC50 at Substance-P receptor of 0.5 nM.

On Substance-P receptor, `C[C@H](OC1CCC2CCC1(c1ccccc1)N2)c1cc(C(F)(F)F)cc(C(F)(F)F)c1` (stereo partly specified) gave a half-inhibitory concentration (IC50) of 200 nM. In other words, the sub-micromolar range.
